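Step 1: Grow cells in 96-well plates. Step 2: Expose to compound for 48 hours at 5 concentrations. Step 3: Interpolate endpoints linearly; if unreached, use highest concentration. GI50 = concentration required for 50% inhibition of growth.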 The source made the active and inactive calls. Rule as the data show it: active = GI50 up to about 1.1 µM and inactive = higher.
Tests used:
Experiment in all cases: inhibition of tumour cell growth, NCI panel, 48 h
[1] = test system: COLO 205
[2] = test system: IGROV-1
[3] = test system: SF-295
[4] = test system: 786-0
[5] = test system: SK-MEL-5
[6] = test system: K562
[7] = test system: DU-145
[8] = test system: NCI/ADR-RES
[9] = test system: HOP-62
[10] = test system: U-251
[11] = test system: MDA-MB-435
[12] = test system: HOP-92
[13] = test system: MOLT-4
[14] = test system: SNB-19
[15] = test system: CCRF-CEM
[16] = test system: RXF 393
[17] = test system: EKVX
[18] = test system: BT-549

Row | Compound | GI50 [1] | GI50 [2] | GI50 [3] | GI50 [4] | GI50 [5] | GI50 [6] | GI50 [7] | GI50 [8] | GI50 [9] | GI50 [10] | GI50 [11] | GI50 [12] | GI50 [13] | GI50 [14] | GI50 [15] | GI50 [16] | GI50 [17] | GI50 [18]
1 | C[C@H]1C[C@H]2[C@@H]3C(C)(C)O[C@]4(O)C(=O)[C@]5(O)[C@@H](C)CC[C@H]1[C@]25C(=O)[C@]34C | 16.7 µM (inactive) | 64 µM (inactive) | 30.1 µM (inactive) | 75.5 µM (inactive) | 28.4 µM (inactive) | 25.5 µM (inactive) | 48.2 µM (inactive) | 39.3 µM (inactive) | 47.1 µM (inactive) | 60.3 µM (inactive) | 32.8 µM (inactive) | 8.61 µM (inactive) | 37.1 µM (inactive) | > 100 µM (inactive) | 36.6 µM (inactive) | – | – | –
2 | O=C1OCCC12CN(Cc1ccccc1)N=N2 (configuration not stated) | > 100 µM (inactive) | – | > 100 µM (inactive) | > 100 µM (inactive) | > 100 µM (inactive) | > 100 µM (inactive) | 87.7 µM (inactive) | > 100 µM (inactive) | > 100 µM (inactive) | > 100 µM (inactive) | > 100 µM (inactive) | > 100 µM (inactive) | > 100 µM (inactive) | > 100 µM (inactive) | – | > 100 µM (inactive) | – | –
3 | Oc1cc(/C=C/c2ccccc2)nc2cc3c(cc12)OCO3 | 2.38 µM (inactive) | 4.56 µM (inactive) | – | 3.32 µM (inactive) | – | – | 7.06 µM (inactive) | 2.04 µM (inactive) | 3.47 µM (inactive) | 2.52 µM (inactive) | 1.98 µM (inactive) | 2.08 µM (inactive) | 2.71 µM (inactive) | 3.78 µM (inactive) | – | – | 6.12 µM (inactive) | 5.73 µM (inactive)
4 | CC1(C)CCC[C@]2(C)[C@H]3[C@H](C#N)c4cc(O)c(O)cc4O[C@@]3(C)CC[C@@H]12 | > 10 µM (inactive) | > 10 µM (inactive) | > 10 µM (inactive) | > 10 µM (inactive) | > 10 µM (inactive) | > 10 µM (inactive) | > 10 µM (inactive) | > 10 µM (inactive) | > 10 µM (inactive) | > 10 µM (inactive) | – | > 10 µM (inactive) | > 10 µM (inactive) | > 10 µM (inactive) | > 10 µM (inactive) | > 10 µM (inactive) | > 10 µM (inactive) | –
5 | O=C(Cc1ccccc1)NNc1nc(NNC(=O)c2ccncc2)nc(Nc2cccc(Cl)c2)n1 | > 10 µM (inactive) | > 10 µM (inactive) | – | > 10 µM (inactive) | > 10 µM (inactive) | > 10 µM (inactive) | > 10 µM (inactive) | > 10 µM (inactive) | > 10 µM (inactive) | > 10 µM (inactive) | – | > 10 µM (inactive) | > 10 µM (inactive) | – | > 10 µM (inactive) | – | > 10 µM (inactive) | > 10 µM (inactive)
6 | CN(C)CCCNC(=O)c1cc(NC(=O)c2cc(NC(=O)[C@H]3C[C@@H]3C(=O)Nc3cc(C(=O)Nc4cc(C(=O)NCCCN(C)C)n(C)c4)n(C)c3)cn2C)cn1C | > 100 µM (inactive) | > 100 µM (inactive) | > 100 µM (inactive) | > 100 µM (inactive) | > 100 µM (inactive) | > 100 µM (inactive) | > 100 µM (inactive) | > 100 µM (inactive) | > 100 µM (inactive) | > 100 µM (inactive) | > 100 µM (inactive) | 3.24 µM (inactive) | > 100 µM (inactive) | > 100 µM (inactive) | > 100 µM (inactive) | – | > 100 µM (inactive) | > 100 µM (inactive)
7 | COC(=O)c1cc(C#Cc2cc(OC)ccc2OC)ccc1OC | 24.5 µM (inactive) | 53.2 µM (inactive) | < 0.01 µM (active) | 51.3 µM (inactive) | 24.4 µM (inactive) | < 0.01 µM (active) | – | 47.5 µM (inactive) | – | 95.1 µM (inactive) | 41.3 µM (inactive) | 22.9 µM (inactive) | 19.3 µM (inactive) | > 100 µM (inactive) | – | 21.3 µM (inactive) | 40.9 µM (inactive) | 37.7 µM (inactive)
8 | CC(C)CNC(=O)Cn1c(-c2ccccc2)cc2ccccc21 | > 100 µM (inactive) | > 100 µM (inactive) | 54.3 µM (inactive) | > 100 µM (inactive) | > 100 µM (inactive) | > 100 µM (inactive) | > 100 µM (inactive) | > 100 µM (inactive) | > 100 µM (inactive) | > 100 µM (inactive) | > 100 µM (inactive) | – | > 100 µM (inactive) | > 100 µM (inactive) | > 100 µM (inactive) | > 100 µM (inactive) | > 100 µM (inactive) | > 100 µM (inactive)
9 | CN(C)C(=O)Nc1cc2c3c(c1)CCCN3CCC2 | > 10 µM (inactive) | > 10 µM (inactive) | > 10 µM (inactive) | > 10 µM (inactive) | > 10 µM (inactive) | > 10 µM (inactive) | > 10 µM (inactive) | > 10 µM (inactive) | > 10 µM (inactive) | > 10 µM (inactive) | > 10 µM (inactive) | > 10 µM (inactive) | > 10 µM (inactive) | > 10 µM (inactive) | > 10 µM (inactive) | > 10 µM (inactive) | > 10 µM (inactive) | –
10 | CC1CNC(NS(=O)(=O)c2cc(C(=O)Nc3ccccc3)c(Cl)cc2S)=NN1 (configuration not stated) | 48.6 µM (inactive) | 6.24 µM (inactive) | 38.5 µM (inactive) | 92.3 µM (inactive) | 23.2 µM (inactive) | 35.2 µM (inactive) | > 100 µM (inactive) | > 100 µM (inactive) | 43.9 µM (inactive) | 39.1 µM (inactive) | 17.7 µM (inactive) | – | 49.8 µM (inactive) | 57 µM (inactive) | 32.8 µM (inactive) | – | > 100 µM (inactive) | 97.3 µM (inactive)
11 | COc1ccc2c(c1)c1c3c(ccc4ncn2c43)N(CCN(C)C)CCN=1 | 0.356 µM (active) | 1.31 µM (inactive) | 0.494 µM (active) | 0.19 µM (active) | 0.91 µM (active) | 0.0488 µM (active) | 0.942 µM (active) | 0.438 µM (active) | 0.362 µM (active) | 0.363 µM (active) | 0.378 µM (active) | 1.49 µM (inactive) | 0.043 µM (active) | 0.405 µM (active) | 0.127 µM (active) | 1.12 µM (active) | 0.586 µM (active) | –
12 | COC(=O)C(=O)C(C(=O)C(N)=O)c1nc2ccc(C(=O)c3ccccc3)cc2nc1O (configuration not stated) | – | 83.2 µM (inactive) | 79.8 µM (inactive) | > 100 µM (inactive) | 45.7 µM (inactive) | 34.2 µM (inactive) | – | 40.4 µM (inactive) | > 100 µM (inactive) | > 100 µM (inactive) | 65 µM (inactive) | > 100 µM (inactive) | 54.3 µM (inactive) | > 10 µM (inactive) | > 100 µM (inactive) | 69.7 µM (inactive) | > 100 µM (inactive) | > 100 µM (inactive)
13 | CCCCCCCCCCCCCOCCOCCOCCCCC(O)CCCCCCCCCC1=C[C@H](C)OC1=O (some centres not stated) | 20.9 µM (inactive) | 18.1 µM (inactive) | 7.21 µM (inactive) | 17.6 µM (inactive) | 6.93 µM (inactive) | 21.2 µM (inactive) | 21.7 µM (inactive) | 10 µM (inactive) | 30.8 µM (inactive) | 14.1 µM (inactive) | 16.9 µM (inactive) | – | 7.59 µM (inactive) | 20.7 µM (inactive) | 9.86 µM (inactive) | 20.1 µM (inactive) | – | 11.1 µM (inactive)
14 | CNC(=O)NCCN1CC2CCC(CC2)C1 | > 10 µM (inactive) | > 10 µM (inactive) | > 10 µM (inactive) | > 10 µM (inactive) | > 10 µM (inactive) | > 10 µM (inactive) | > 10 µM (inactive) | > 10 µM (inactive) | > 10 µM (inactive) | > 10 µM (inactive) | > 10 µM (inactive) | – | > 10 µM (inactive) | > 10 µM (inactive) | > 10 µM (inactive) | > 10 µM (inactive) | > 10 µM (inactive) | –
15 | COc1ccc(-c2c(C#N)c(-c3ccc(C)cc3)n(NS(=O)(=O)c3ccccc3)c(=O)c2C#N)cc1 | > 100 µM (inactive) | 35.5 µM (inactive) | 32.7 µM (inactive) | 51.5 µM (inactive) | 19.5 µM (inactive) | 60.4 µM (inactive) | – | 41.5 µM (inactive) | 51.3 µM (inactive) | 42.2 µM (inactive) | 73.6 µM (inactive) | 38.8 µM (inactive) | 19 µM (inactive) | 58.5 µM (inactive) | 23 µM (inactive) | 36.2 µM (inactive) | 53.5 µM (inactive) | 25.2 µM (inactive)
16 | COc1cc(OC)c(-n2[nH]c(=O)n(C)c2=O)c(OC)c1 | > 100 µM (inactive) | > 100 µM (inactive) | – | > 100 µM (inactive) | – | > 100 µM (inactive) | > 100 µM (inactive) | > 100 µM (inactive) | – | > 100 µM (inactive) | > 100 µM (inactive) | – | > 100 µM (inactive) | > 100 µM (inactive) | > 100 µM (inactive) | > 100 µM (inactive) | > 100 µM (inactive) | > 100 µM (inactive)
17 | COC(=S)OC1CC(n2cnc3c(=O)[nH]cnc32)OC1CO[Si](C)(C)C(C)(C)C (configuration not stated) | > 100 µM (inactive) | > 100 µM (inactive) | > 100 µM (inactive) | > 100 µM (inactive) | > 100 µM (inactive) | > 100 µM (inactive) | > 100 µM (inactive) | > 100 µM (inactive) | > 100 µM (inactive) | > 100 µM (inactive) | > 100 µM (inactive) | > 100 µM (inactive) | > 100 µM (inactive) | > 100 µM (inactive) | > 100 µM (inactive) | > 100 µM (inactive) | > 100 µM (inactive) | –

— ChEMBL document CHEMBL1201862, “PubChem BioAssay data set” (2004)
